# Experimental data taken from patent publication US10233447B2, “Self-cleaving ribozymes and uses thereof” (The Children s Medical Center Corporation, priority 2003, dated 2019).
# Where “and” joins values, the source holds several entries; their conditions need not be identical. Equal entries are not always repeated. Entries after “also recorded” stand apart in the source; their conditions may differ.
# B1: N93: N79 with shortened stem I, SEQ ID NO: 7 (nucleic acid)
# chain: AGGUACAUCCAGCUGAUGAGUCCCAAAUAGGACGAAACGCGCUUCGGUGCGUCCUGGAUUCCACU
# modifications: expressed or natural sequence
# B2: N27: Sml with tetraloop 5′-UUCG-3′ grafted onto extended stem III, SEQ ID NO: 3 (nucleic acid)
# chain: CUGAGAUGCAGGUACAUCCAGCUGACGAGUCCCAAAUAGGACGAAACGCCUUCGGGCGUCCUGGAUUCCACUGCUAUCCAC
# modifications: expressed or natural sequence
# B3: TRSV hammerhead: naturally occurring ribozyme, SEQ ID NO: 53 (nucleic acid)
# chain: AUACCCUGUCACCGGAUGUGCUUUCCGGUCUGAUGAGUCCGUGAGGACGAAACAGGACUGUC
# modifications: expressed or natural sequence
# B4: Cricket hammerhead: hammerhead Pst-3 rz from the Dolichopoda cave cricket, SEQ ID NO: 1 (nucleic acid)
# chain: AUGUGUGUUCCCUCUGCCCCGCUGAUGAGGUCGGGGAGACCGAAAGGGUCAACUCUACGGGGCUAUUACAUGCAAU
# modifications: expressed or natural sequence
# B5: Schisto hammerhead: original hammerhead Sml rz of Schistosoma mansoni lacking loop III, SEQ ID NO: 2 (nucleic acid)
# chain: CUGAGAUGCAGGUACAUCCAGCUGACGAGUCCCAAAUAGGACGAAACGCGCGUCCUGGAUUCCACUGCUAUCCAC
# modifications: expressed or natural sequence
# B6: N79: N73 ribozyme transferred to position E of the vector, SEQ ID NO: 5 (nucleic acid)
# chain: CUGAGAUGCAGGUACAUCCAGCUGAUGAGUCCCAAAUAGGACGAAACGCGCUUCGGUGCGUCCUGGAUUCCACUGCUAUCCAC
# B7: N117: N79 variant changed near the restriction insertion site, SEQ ID NO: 6 (nucleic acid)
# chain: CUGAGAUGCAGGUACAUCCCACUGAUGAGUCCCAAAUAGGACGAAACGCGCUUCGGUGCGUCUGGGAUUCCACUGCUAUCCAC
# modifications: expressed or natural sequence
# B8: N99: N79 with changes in stem I near the core, SEQ ID NO: 6 (nucleic acid)
# chain: CUGAGAUGCAGGUACAUCCCACUGAUGAGUCCCAAAUAGGACGAAACGCGCUUCGGUGCGUCUGGGAUUCCACUGCUAUCCAC
# modifications: expressed or natural sequence
# How the values were obtained:
# N79 rz = test: microbe, parasite or virus in culture; assay type: cell-based, Schistosoma mansoni; settings: for EC50 / maximal fold induction / Foldmax: inhibition of ribozyme activity in cells; for maximal fold induction: read-out: Foldmax; for luciferase protein expression / induced gene expression: double N79 rz; for luciferase activity, emission: untreated 1,555, background 121
# double functional N79 rz = test: In vivo induction of luciferase in retina injected with AAV carrying double N79 rz, bioluminescent imaging; design: species or system nude mice; settings: for luciferase expression in retina: mice with AAV carrying double functional N79, drug pellet, day 2
# Experimental: FIG. 4 show effective control of gene expression in vivo using rz-based gene regulation system. […] AAV injection was done 3 weeks prior to the first imaging day (day 0). Drug-releasing pellets were implanted subcutaneously in the dorsal neck immediately after the first imaging, and released the drug over 7 days. The toyocamycin pellet contains 10 μg of drug; adenosine pellet 50 μg.
# Having documented the ability of the rz-based regulation system to function in mammalian cell culture, a final important issue to be addressed was whether the intracellular machinery and ‘environment’ necessary for self-cleavage was operable in primary cells in vivo. […] After 21 days, the injected animals were imaged for luciferase gene expression using the Xenogen IVIS imager, which provides a quantitative measure ofluciferase expression based on single-photon detection (Contag, et al., 1998, Nat Med 4, 245-7). […] Two days later, all animals were then imaged for luciferase expression. […] Quantification of the photon output indicated gene expression was ‘induced’ 39, 185, and 191-fold in the three mice infected with virus carrying the functional rzs and treated with toyocamycin. […] While the retina may be particularly accessible to ‘inducer’ due to its extensive vascularization, Applicants have shown in preliminary experiments that gene regulation can be accomplished at a number of other anatomical sites in vivo (e.g., muscle and ear).
# Prior to imaging, the anesthetized mice were injected with 150 μl of luciferin (30 mg/ml) and the pupils were moistened and dilated with 1% tropicamide. A series of bioluminescent images were taken for up to 30 minutes using the Xenogen IVIS imager. Photon output was quantified at the plateau of the time course using the LivingImage software. Induction in fold was calculated based on the photon output in the retina before and after drug treatment, and was normalized to the photon output from the leg muscles. Adenosine was purchased from Innovative Research of America.
# 293 cells = test: Transient transfection LacZ reporter assay of ribozyme self-cleavage; assay type: cell-based; settings: for Fold (suppression in reporter gene expression relative to the vector with inactive rz): pMD LacZ vector, functional vs inactive rz, fold=1 means no effect
# From the text: The approach is critically dependent upon both the ability of a specific self-cleaving ribozyme (rz) to effect the highly efficient cleavage (>99%) of an mRNA molecule into which it is embedded, and the availability of a small molecule capable of efficiently inhibiting self-cleavage of the cis-acting rz within an intracellular milieu. A first step in our studies was to identify candidate rz sequences capable of efficient cleavage in mammalian cells in the context of an ‘expression’ vector. For this purpose, Applicantsmade use of a transient transfection assay involving a standard mammalian expression vector (Ory, et al., 1996, Proc Natl Acad Sci USA 93, 11400-6) which encodes a LacZ reporter (FIG. 1b). […] After transfection of 293 cells with these vectors, protein extracts were prepared from cells and the β-gal level quantified.
# 1.5 μl Fugene-6 (Roche, Basel, Switzerland) was diluted in 100 μl OPTIMEM (Gibco, Carlsbad, Calif.) and incubated for 5 minutes at room temperature. This solution was added dropwise to 0.45 μg plasmid DNA and incubated for 15 minutes. The plasmid DNA contains either a wildtype or a mutant ribozyme and a Lacz reporter gene. The DNA mixture was then added dropwise to 3×10^5 HEK 293 cells (plated the previous day in a 35 mm dish). Cells were harvested for β-galactosidase assay 24 hours following transfection.
# Plasmids carrying different ribozymes were transfected into HEK293T cells and lysed 24 h later. The cell extracts were incubated with ONPG, and the amount of B-galactosidase in cell extracts was measured by quantifying the processed ONPG using a luminometer.
# Cleaving activity was determined by comparing the level of −galactosidase measured in the test sample to a control comprising a point mutation (A-+G) at position 14 which attenuates ribozyme activity. Briefly, transfected HEK293 cells were lysed with a lysis solution and the extracts of cells were separated from cell debris. The extracts were then incubated with ONPG, a chromogenic substrate of β-galactosidase. […] The intensity of yellow light emission was measured with a luminometer (Miller J., Experiments in Molecular Genetics, Cold Spring Harbor Laboratory, Cold Spring Harbor, N.Y. (1972)).
# [1] = tested on: self-cleavage of full length ribozymes; test: Catalytic rate measurement of in vitro transcribed ribozymes; assay type: biochemical; settings: 50 mM Tris-HCl pH7.5, 23° C.
# Experimental: Ribozymes were generated by in vitro transcription in the presence of 50 uM blocking antisense oligos. Full length ribozymes were purified and the cleavage rate determined in 50 mM Tris-HCI, pH7.5 at 23° C. Kobs was calculated according to the equation F1=F0+F∞(l−e^kt).
# [2] = tested on: a variety of other commonly used cell lines; test: Transfection of N79 rz vector into other cell lines; assay type: cell-based; settings: after transfection
# From the text: (a) and (b) N79 functioned efficiently in a variety of cell types. Numbers are the measurements of β-gal expressed. (c) N79 functioned efficiently at some but not all positions within the vector. […] The ±signs indicate standard deviation from mean of at least four independent measurements.
# In addition, the N79 rz was able to function efficiently when placed within other transcriptional units which made use of different promoters and a different reporter gene (eGFP) (FIG. 2b). As Applicants had observed in the primary screen of different rz motifs for activity in mammalian cells, N79 was able to function when placed in several, but not all locations of the pMD transcriptional unit, albeit at different efficiencies (FIG. 2c). Importantly, placement of two rz sequences in tandem, in some cases (e.g., E position) led to a dramatic suppression of reporter gene expression (FIG. 2c).
# [3] = rz inserted at position A of pMD vector
molecule,measurement,setting,value
O=c1[nH]c(=O)n([C@@H]2O[C@H](CO)[C@@H](O)[C@H]2O)cc1Br [5-BromoUridine],EC50,N79 rz; Schistosoma mansoni,267 µM
same,maximal fold induction,N79 rz; Schistosoma mansoni,16
O=c1[nH]cc(F)c(=O)[nH]1 [5-FluoroUracil],EC50,N79 rz; Schistosoma mansoni,200 µM
same,maximal fold induction,N79 rz; Schistosoma mansoni,377
same,luciferase protein expression / induced gene expression,N79 rz; stable cell line,induced gene expression
O=c1[nH]c(=O)n([C@@H]2O[C@H](CO)[C@@H](O)[C@H]2O)cc1F [5-FluoroUridine],EC50,N79 rz; Schistosoma mansoni,5.9 µM
same,maximal fold induction,N79 rz; Schistosoma mansoni,120
same,luciferase protein expression / induced gene expression,N79 rz; stable cell line,induced gene expression
Nc1ncnc2c1nnn2[C@@H]1O[C@H](CO)[C@@H](O)[C@H]1O [8-Azaadenosine],EC50,N79 rz; Schistosoma mansoni,4 µM
same,maximal fold induction,N79 rz; Schistosoma mansoni,45
CN(C)c1ccc2cc3ccc(N(C)C)cc3nc2c1 [Acridine orange],EC50,N79 rz; Schistosoma mansoni,7 µM
same,maximal fold induction,N79 rz; Schistosoma mansoni,4
CC[n+]1c(-c2ccccc2)c2cc(N)ccc2c2ccc(N)cc21 [Homidium bromide],EC50,N79 rz; Schistosoma mansoni,2 µM
same,maximal fold induction,N79 rz; Schistosoma mansoni,8
OC[C@H]1O[C@@H](n2cnc3cncnc32)[C@H](O)[C@@H]1O [Nebularine],EC50,N79 rz; Schistosoma mansoni,10 µM
same,maximal fold induction,N79 rz; Schistosoma mansoni,8
NC(=O)c1cn([C@@H]2O[C@H](CO)[C@@H](O)[C@H]2O)c2ncnc(N)c12 [Sangivamycin],EC50,N79 rz; Schistosoma mansoni,1 µM
same,maximal fold induction,N79 rz; Schistosoma mansoni,38
N#Cc1cn([C@@H]2O[C@H](CO)[C@@H](O)[C@H]2O)c2ncnc(N)c12 [Toyocamycin],"luciferase activity, emission","N79 rz; 0.5 μM, 24 hours","66,774 photons per second per 1000 cells"
same,"luciferase activity, emission","N79 rz; 1 μM, 24 hours","242,546 photons per second per 1000 cells"
same,"luciferase activity, emission","N79 rz; 1.5 μM, 24 hours","377,655 photons per second per 1000 cells"
same,EC50,N79 rz; Schistosoma mansoni,0.4 µM
same,maximal fold induction,N79 rz; Schistosoma mansoni,365
same,amount of luciferase mRNA,"N79 rz; northern blot, nucleus and cytoplasm, 24 hours of treatment",increased to a level comparable to that of cells carrying inactive rz
same,concentrations at which toxic effects were observed,"N79 rz; stable cell line, 24 hours",higher than 1.5 μM
same,luciferase protein expression / induced gene expression,N79 rz; stable cell line,dramatic increase
same,induced gene expression level relative to virus carrying inactive rzs,double functional N79 rz; animal showing 191-fold induction,≤ 40%
same,"gene expression 'induced', photon output in retina","double functional N79 rz; individual mice, functional rzs, 10 μg pellet subcutaneous, day 2, normalized to leg muscles",39 fold and 185 fold and 191 fold
same,luciferase expression in retina,double functional N79 rz,readily detectable expression; also recorded: strong induction
Nc1ncnc2c1ccn2[C@@H]1O[C@@H]2COP(=O)(O)O[C@H]2[C@H]1O [Tubercidin-cyclic monophosphate],EC50,N79 rz,34 µM
same,Foldmax,N79 rz,35 fold
Nc1ncnc2c1ccn2[C@@H]1O[C@H](COP(=O)(O)O)[C@@H](O)[C@H]1O [Tubercidin-monophosphate],EC50,N79 rz,2 µM
same,Foldmax,N79 rz,39 fold
Nc1ncnc2c1ccn2[C@@H]1O[C@H](COP(=O)(O)OP(=O)(O)OP(=O)(O)O)[C@@H](O)[C@H]1O [Tubercidin-triphosphate],EC50,N79 rz; Schistosoma mansoni,2 µM
same,maximal fold induction,N79 rz; Schistosoma mansoni,35
Nc1ncnc2c1ccn2[C@@H]1O[C@H](CO)[C@@H](O)[C@H]1O [Tubercidin],EC50,N79 rz; Schistosoma mansoni,2.5 µM
same,maximal fold induction,N79 rz; Schistosoma mansoni,58
Nc1ncnc2c1ncn2[C@@H]1O[C@H](CO)[C@@H](O)[C@H]1O [adenosine],ability to inhibit rz self-cleavage,N79 rz,no ability
same,luciferase expression in retina,double functional N79 rz,little if any gene expression
"N94: N79 with shortened stem I, SEQ ID NO: 8 (CCAGCUGAUGAGUCCCAAAUAGGACGAAACGCGCUUCGGUGCGUCCUGG; expressed or natural sequence)","cleavage activity, fold difference between functional and inactive rz",293 cells; rz at position E of pMD vector,vastly reduced
B1,"cleavage activity, fold difference between functional and inactive rz",293 cells; rz at position E of pMD vector,vastly reduced
B2,Fold (suppression in reporter gene expression relative to the vector with inactive rz),293 cells,19 fold
same,"cleavage activity, fold difference between functional and inactive rz",293 cells; [3],19 fold
B3,Fold (suppression in reporter gene expression relative to the vector with inactive rz),293 cells,1 fold
B4,Fold (suppression in reporter gene expression relative to the vector with inactive rz),293 cells,13 fold
same,"cleavage activity, fold difference between functional and inactive rz",293 cells; [3],13 fold
B5,Fold (suppression in reporter gene expression relative to the vector with inactive rz),293 cells,1 fold
same,"cleavage activity, fold difference between functional and inactive rz",293 cells; [3],no activity
B6,"cleavage activity, fold difference between functional and inactive rz",293 cells; rz at position E of pMD vector,225 fold
same,Kobs,[1]; 0.5 mM Mg++,0.84 ^−min
same,Kobs,[1]; 10 mM Mg++,0.84 ^−min
same,B-gal expression,[2],dramatically reduced
B7,"cleavage activity, fold difference between functional and inactive rz",293 cells; rz at position E of pMD vector,further enhanced activity
B8,"cleavage activity, fold difference between functional and inactive rz",293 cells; rz at position E of pMD vector,further enhanced activity
